The text below walks through data of publication PMC8677766 (Nature Communications, 2021).

This experiment addresses T1, hRpn13 (Homo sapiens, UniProt Q16186).
T1 construct: gene ADRM1; hRpn13 Pru (1–150)
The experiment in a line: ITC; NMR structure; 2D NMR; LC-MS adduct; tryptophan quenching. It is filed as binding.

T1 sequence (Q16186 1-150): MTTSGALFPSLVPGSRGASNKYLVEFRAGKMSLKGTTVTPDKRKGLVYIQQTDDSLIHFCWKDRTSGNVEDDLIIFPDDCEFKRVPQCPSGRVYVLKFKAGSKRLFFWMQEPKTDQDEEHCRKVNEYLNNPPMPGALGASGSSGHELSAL

As usually defined, the Kd is the constant that tells how readily two partners part at equilibrium. Read a high Kd as lower affinity. Compound `Cc1ccc(C(=O)Nc2cccc(/C=C(\C#N)C(=O)Nc3ccccc3C(=O)O)c2)cc1` [XL5] had a Kd of 1480 ± 520 nM.
